Reference: publication PMC12498136, “Synthesis and biological evaluation of novel carnosic acid derivatives with anticancer activity” (RSC Advances, 2025)

Assays:
Format in all cases: cell-based
[1] = test system: Caco-2 cells; experiment: MTT cell viability assay in Caco-2 cells; conditions: Homo sapiens, Caco-2, 72 h, read-out: IC50 Caco-2
Experimental: The MTT assay was used to assess the effect of the compounds on cell viability. For this purpose, A375 (1500 cells per well), BJ (10 000 cells per well), Caco-2 (4000 cells per well), HCT116 (3000 cells per well), Mia Paca-2 (2000 cells per well), SW480 (6000 cells per well), and SW620 (8000 cells per well) cells were seeded in 96-well plates and incubated for 24 h. Subsequently, the culture medium was switched with a new medium containing DMSO (control) or the compound at a specified concentration. Following a 72 h incubation period, the supernatant was aspirated, and 100 μL of a mixture (1 : 1) of filtered MTT solution (1 mg per mL PBS) and FBS-free medium was added. The plates were then incubated for 1 h at 37 °C. After this time, the supernatant was aspirated, and the formazan crystals were dissolved in 100 μL of DMSO in each well. Relative cell viability was calculated by measuring absorbance at 570 nm using a Benchmark Plus Microplate Reader (Bio-Rad Laboratories, Hercules, CA, USA). Results are presented as the mean ± standard deviation (SD) of IC50 values, determined by nonlinear regression analysis of dose–response curves (log(inhibitor) vs. response with variable slope (four parameters)) using GraphPad Prism 9 software (GraphPad Software, San Diego, CA, USA).

[2] = test system: CDK6; experiment: Western blot of CDK6 levels in SW480 cells; conditions: SW480, 6.3 μM, relative to control
Experimental: (§1) SW480 cells were seeded in 6-well plates and treated as described in the previous subsection. After 24, 48 or 72 h of incubation, adherent cells were washed twice with ice-cold DPBS and incubated with lysis buffer (0.2% Triton X-100, 0.5 mM sodium deoxycholate, 1 mM Na-EDTA, 1 mM DTT, 20 mM Tris–HCl (pH 7.5), 0.5% phosphatases inhibitor cocktail, and 1% proteases inhibitor cocktail) for 30 min at 4 °C. The cells were scraped, sonicated, and centrifuged at 120 00 × g (20 min at 4 °C). […] The gels were then transferred to PVDF membranes, which were blocked with 5% skim milk in PBS-Tween-20 (0.1%) for 1 h at room temperature. Subsequently, the membranes were incubated with the primary antibodies for 30 mi at room temperature (actin) or overnight at 4 °C (CDK4, CDK6, cyclin A, Rb and SOD2/MnSOD). After incubation, the membranes were washed with PBS-Tween-20 (0.1%) and incubated with anti-mouse secondary antibody (40 min) or anti-rabbit secondary antibody (1 h) at room temperature. Finally, the membranes were washed with PBS-Tween-20 (0.1%) and treated with the Immobilon Western Chemiluminescent HRP Substrate Kit, and autoradiography was performed using an FPM-100A film processor (Fujifilm, Tokyo, Japan). western blot results were obtained from three independent experiments, except for cyclin A at 24 h (n = 2), Rb protein at 24 and 72 h (n = 2), and SOD2 (MnSOD) at 72 h (n = 2).

[3] = test system: cyclin A; experiment: Western blot of cyclin A levels in SW480 cells; conditions: SW480, 6.3 μM, relative to control
Experimental: as §1

[4] = test system: Rb; experiment: Western blot of Rb levels in SW480 cells; conditions: SW480, 6.3 μM, 24, 48, and 72 h, relative to control
Experimental: as §1

With `CC(=O)Oc1c(C(C)C)cc2c(c1OC(C)=O)[C@@]1(NC(=O)OCC(C)C)CCCC(C)(C)[C@@H]1CC2` [Compound 17, (4bR,8aS)-8,8-Dimethyl-4b-{[(2-methylpropoxy)carbonyl]amino}-2-(propan-2-yl)-4b,5,6,7,8,8a,9,10-octahydrophenanthrene-3,4-diyl diacetate] the IC50 [1] was 16 ± 2 µM, the CDK6 protein level ([2]; 24 h) was “significantly reduced” and the CDK6 protein level ([2]; 48 h) was “lower than those in the control group”. For the same compound, the “cyclin A expression” value ([3]; 24 h) was “decrease”, the “cyclin A expression” value ([3]; 48 h) was “did not affect” and the Rb protein level [4] was “notable decrease”.
